According to article PMC11480411, “Mucosal sugars delineate pyrazine vs pyrazinone autoinducer signaling in Klebsiella oxytoca” (Nature Communications, 2024):

Legend:
Test in all cases: PRESTO-Tango GPCR screen
Format in all cases: cell-based
Details in all cases: 100 µM
[1] = target: T1, KISSPEPTIN-R (Homo sapiens, UniProt Q969F8)
T1 construct: purchased PRESTO-Tango GPCR kit (Roth lab / Addgene)
Procedure, shortened: (§1)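 HEK293 HTLA line (stable β-arrestin-TEV, tTA-luciferase); receptor-Tango transient transfection, PEI; 20 h compound exposure at 100 μM final; luciferase luminescence; fold vs PBS. Dose curves 10^−4–10^−15 M.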

[2] = target: T2, GPR152 (Homo sapiens, UniProt Q8TDT2)
T2 construct: purchased PRESTO-Tango GPCR kit (Roth lab / Addgene)
Procedure, shortened: as §1

[3] = target: T3, GPR111 (Homo sapiens, UniProt Q8IZF7)
T3 construct: purchased PRESTO-Tango GPCR kit (Roth lab / Addgene)
Procedure, shortened: as §1

[4] = target: T4, GPR55 (Homo sapiens, UniProt Q9Y2T6)
T4 construct: purchased PRESTO-Tango GPCR kit (Roth lab / Addgene)
T4 sequence (Q9Y2T6 whole entry): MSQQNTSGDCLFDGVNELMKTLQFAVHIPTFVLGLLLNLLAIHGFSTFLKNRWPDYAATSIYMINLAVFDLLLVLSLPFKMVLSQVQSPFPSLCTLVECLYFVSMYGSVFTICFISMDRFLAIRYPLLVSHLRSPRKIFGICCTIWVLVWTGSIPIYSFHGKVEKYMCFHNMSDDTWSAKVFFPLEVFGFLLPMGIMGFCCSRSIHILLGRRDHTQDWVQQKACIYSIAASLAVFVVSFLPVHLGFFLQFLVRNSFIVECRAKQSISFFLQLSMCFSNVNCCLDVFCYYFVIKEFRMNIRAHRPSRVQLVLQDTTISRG
Procedure, shortened: as §1

[5] = target: T5, AVPR1A (Homo sapiens, UniProt P37288)
T5 construct: purchased PRESTO-Tango GPCR kit (Roth lab / Addgene)
Procedure, shortened: as §1

[6] = target: T6, TACR2 (Homo sapiens, UniProt P21452)
T6 construct: purchased PRESTO-Tango GPCR kit (Roth lab / Addgene)
Procedure, shortened: as §1

[7] = target: T7, ADORA2A (Homo sapiens, UniProt P29274)
T7 construct: purchased PRESTO-Tango GPCR kit (Roth lab / Addgene)
Procedure, shortened: as §1

[8] = target: T8, CCR5 (Homo sapiens, UniProt P51681)
T8 construct: purchased PRESTO-Tango GPCR kit (Roth lab / Addgene)
Procedure, shortened: as §1

[9] = target: T9, EDNRA (Homo sapiens, UniProt P25101)
T9 construct: purchased PRESTO-Tango GPCR kit (Roth lab / Addgene)
Procedure, shortened: as §1

[10] = target: T10, GCGR (Homo sapiens, UniProt P47871)
T10 construct: purchased PRESTO-Tango GPCR kit (Roth lab / Addgene)
T10 sequence (P47871 26-477): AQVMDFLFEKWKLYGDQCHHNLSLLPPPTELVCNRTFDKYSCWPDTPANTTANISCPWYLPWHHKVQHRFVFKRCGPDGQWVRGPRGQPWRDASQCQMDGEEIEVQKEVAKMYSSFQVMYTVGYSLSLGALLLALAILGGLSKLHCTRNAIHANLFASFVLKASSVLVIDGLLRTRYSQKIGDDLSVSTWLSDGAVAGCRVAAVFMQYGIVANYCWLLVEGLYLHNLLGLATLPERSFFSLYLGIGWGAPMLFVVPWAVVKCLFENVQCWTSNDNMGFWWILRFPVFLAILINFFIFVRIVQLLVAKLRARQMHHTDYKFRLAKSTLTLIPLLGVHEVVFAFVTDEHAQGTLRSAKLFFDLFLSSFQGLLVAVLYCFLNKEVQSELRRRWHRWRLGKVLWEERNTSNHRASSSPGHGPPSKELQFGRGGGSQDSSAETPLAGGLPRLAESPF
Procedure, shortened: as §1

[11] = target: T11, MLNR (Homo sapiens, UniProt O43193)
T11 construct: purchased PRESTO-Tango GPCR kit (Roth lab / Addgene)
T11 sequence (O43193 whole entry): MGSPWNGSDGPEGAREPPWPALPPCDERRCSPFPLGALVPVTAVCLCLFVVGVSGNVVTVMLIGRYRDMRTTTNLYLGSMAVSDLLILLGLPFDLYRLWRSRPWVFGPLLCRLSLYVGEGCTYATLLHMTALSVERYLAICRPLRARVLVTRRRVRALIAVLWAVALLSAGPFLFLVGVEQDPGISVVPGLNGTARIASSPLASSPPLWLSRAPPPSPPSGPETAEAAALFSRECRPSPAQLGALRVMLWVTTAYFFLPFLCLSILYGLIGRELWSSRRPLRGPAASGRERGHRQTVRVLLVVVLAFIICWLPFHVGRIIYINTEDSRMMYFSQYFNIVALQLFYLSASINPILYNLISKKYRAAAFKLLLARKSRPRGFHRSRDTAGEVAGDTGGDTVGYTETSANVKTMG
Procedure, shortened: as §1

[12] = target: T12, CXCR2 (Homo sapiens, UniProt P25025)
T12 construct: purchased PRESTO-Tango GPCR kit (Roth lab / Addgene)
T12 sequence (P25025 whole entry): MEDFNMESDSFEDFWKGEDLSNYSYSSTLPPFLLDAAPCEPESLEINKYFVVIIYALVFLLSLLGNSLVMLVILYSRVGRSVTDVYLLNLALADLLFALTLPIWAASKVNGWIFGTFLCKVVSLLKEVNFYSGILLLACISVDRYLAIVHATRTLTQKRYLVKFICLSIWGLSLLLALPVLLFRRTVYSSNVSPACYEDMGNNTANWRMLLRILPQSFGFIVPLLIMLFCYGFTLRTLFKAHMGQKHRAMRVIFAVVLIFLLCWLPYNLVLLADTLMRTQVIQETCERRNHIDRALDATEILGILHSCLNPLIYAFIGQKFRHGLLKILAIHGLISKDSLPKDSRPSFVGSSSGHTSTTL
Procedure, shortened: as §1

[13] = target: T13, GRPR (Homo sapiens, UniProt P30550)
T13 construct: purchased PRESTO-Tango GPCR kit (Roth lab / Addgene)
Procedure, shortened: as §1

[14] = target: T14, P2RY8 (Homo sapiens, UniProt Q86VZ1)
T14 construct: purchased PRESTO-Tango GPCR kit (Roth lab / Addgene)
T14 sequence (Q86VZ1 whole entry): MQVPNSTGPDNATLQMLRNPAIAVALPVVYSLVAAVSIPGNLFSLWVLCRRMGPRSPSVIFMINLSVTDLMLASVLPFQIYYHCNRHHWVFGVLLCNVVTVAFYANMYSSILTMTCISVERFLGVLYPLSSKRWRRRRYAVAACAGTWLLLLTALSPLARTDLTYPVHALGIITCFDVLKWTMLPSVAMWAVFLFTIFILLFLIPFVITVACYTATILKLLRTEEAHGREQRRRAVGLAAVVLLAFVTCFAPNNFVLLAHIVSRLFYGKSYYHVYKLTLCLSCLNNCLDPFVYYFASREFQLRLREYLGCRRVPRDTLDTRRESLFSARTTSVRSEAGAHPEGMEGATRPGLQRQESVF
Procedure, shortened: as §1

[15] = target: T15, MRGPRX2 (Homo sapiens, UniProt Q96LB1)
T15 construct: purchased PRESTO-Tango GPCR kit (Roth lab / Addgene)
Procedure, shortened: as §1

[16] = target: T16, GNRHR (Homo sapiens, UniProt P30968)
T16 construct: purchased PRESTO-Tango GPCR kit (Roth lab / Addgene)
T16 sequence (P30968 whole entry): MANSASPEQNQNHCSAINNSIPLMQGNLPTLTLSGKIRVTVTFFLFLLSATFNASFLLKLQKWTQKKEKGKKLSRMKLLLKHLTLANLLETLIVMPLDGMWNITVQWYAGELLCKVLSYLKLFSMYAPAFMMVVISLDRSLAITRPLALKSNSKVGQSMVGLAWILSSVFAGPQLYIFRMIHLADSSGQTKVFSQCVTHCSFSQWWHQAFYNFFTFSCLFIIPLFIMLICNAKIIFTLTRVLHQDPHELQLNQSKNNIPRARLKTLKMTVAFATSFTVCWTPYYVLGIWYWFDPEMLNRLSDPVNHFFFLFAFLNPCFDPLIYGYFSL
Procedure, shortened: as §1

[17] = target: T17, CD97 (Homo sapiens, UniProt P48960)
T17 construct: purchased PRESTO-Tango GPCR kit (Roth lab / Addgene)
Procedure, shortened: as §1

[18] = target: T18, DRD4 (Homo sapiens, UniProt P21917)
T18 construct: purchased PRESTO-Tango GPCR kit (Roth lab / Addgene)
Procedure, shortened: as §1

[19] = target: T19, NPFF1 (Homo sapiens, UniProt Q9GZQ6)
T19 construct: purchased PRESTO-Tango GPCR kit (Roth lab / Addgene)
Procedure, shortened: as §1

[20] = target: T20, MTNR1A (Homo sapiens, UniProt P48039)
T20 construct: purchased PRESTO-Tango GPCR kit (Roth lab / Addgene)
Procedure, shortened: as §1

[21] = target: T21, GPR1 (Homo sapiens, UniProt P46091)
T21 construct: purchased PRESTO-Tango GPCR kit (Roth lab / Addgene)
Procedure, shortened: as §1

[22] = target: T22, GRM8 (Homo sapiens, UniProt O00222)
T22 construct: purchased PRESTO-Tango GPCR kit (Roth lab / Addgene)
Procedure, shortened: as §1

[23] = target: T23, DRD1 (Homo sapiens, UniProt P21728)
T23 construct: purchased PRESTO-Tango GPCR kit (Roth lab / Addgene)
Procedure, shortened: as §1

[24] = target: T24, MC4R (Homo sapiens, UniProt P32245)
T24 construct: purchased PRESTO-Tango GPCR kit (Roth lab / Addgene)
T24 sequence (P32245 whole entry): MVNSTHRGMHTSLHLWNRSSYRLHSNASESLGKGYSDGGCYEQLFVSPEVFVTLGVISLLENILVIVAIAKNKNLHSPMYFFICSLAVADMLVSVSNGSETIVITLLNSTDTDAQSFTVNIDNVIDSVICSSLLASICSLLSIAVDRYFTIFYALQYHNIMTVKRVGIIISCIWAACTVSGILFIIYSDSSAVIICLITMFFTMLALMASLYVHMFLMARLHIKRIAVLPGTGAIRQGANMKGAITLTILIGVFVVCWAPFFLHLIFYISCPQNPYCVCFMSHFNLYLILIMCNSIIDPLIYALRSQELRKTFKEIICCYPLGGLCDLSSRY
Procedure, shortened: as §1

[25] = target: T25, CXCR7 (Homo sapiens, UniProt P25106)
T25 construct: purchased PRESTO-Tango GPCR kit (Roth lab / Addgene)
Procedure, shortened: as §1

[26] = target: T26, OPRD1 (Homo sapiens, UniProt P41143)
T26 construct: purchased PRESTO-Tango GPCR kit (Roth lab / Addgene)
Procedure, shortened: as §1

[27] = target: T27, MRGPRD (Homo sapiens, UniProt Q8TDS7)
T27 construct: purchased PRESTO-Tango GPCR kit (Roth lab / Addgene)
Procedure, shortened: as §1

[28] = target: T28, VIPR2 (Homo sapiens, UniProt P41587)
T28 construct: purchased PRESTO-Tango GPCR kit (Roth lab / Addgene)
T28 sequence (P41587 24-438): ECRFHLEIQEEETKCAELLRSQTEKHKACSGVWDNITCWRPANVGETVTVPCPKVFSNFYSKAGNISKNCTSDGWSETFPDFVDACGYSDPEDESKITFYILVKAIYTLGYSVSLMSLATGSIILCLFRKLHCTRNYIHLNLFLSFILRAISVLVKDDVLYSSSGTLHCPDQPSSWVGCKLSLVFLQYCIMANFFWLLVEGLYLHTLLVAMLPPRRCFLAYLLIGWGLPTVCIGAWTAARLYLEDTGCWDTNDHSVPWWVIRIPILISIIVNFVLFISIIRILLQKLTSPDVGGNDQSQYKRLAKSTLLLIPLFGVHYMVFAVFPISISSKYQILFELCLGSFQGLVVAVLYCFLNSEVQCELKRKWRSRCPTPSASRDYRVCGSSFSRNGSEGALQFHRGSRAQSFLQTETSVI
Procedure, shortened: as §1

[29] = target: T29, GPR15 (Homo sapiens, UniProt P49685)
T29 construct: purchased PRESTO-Tango GPCR kit (Roth lab / Addgene)
Procedure, shortened: as §1

[30] = target: T30, GPR133 (Homo sapiens, UniProt Q6QNK2)
T30 construct: purchased PRESTO-Tango GPCR kit (Roth lab / Addgene)
Procedure, shortened: as §1

[31] = target: T31, HCA3 (Homo sapiens, UniProt P49019)
T31 construct: purchased PRESTO-Tango GPCR kit (Roth lab / Addgene)
Procedure, shortened: as §1

[32] = target: T32, GPR61 (Homo sapiens, UniProt Q9BZJ8)
T32 construct: purchased PRESTO-Tango GPCR kit (Roth lab / Addgene)
T32 sequence (Q9BZJ8 whole entry): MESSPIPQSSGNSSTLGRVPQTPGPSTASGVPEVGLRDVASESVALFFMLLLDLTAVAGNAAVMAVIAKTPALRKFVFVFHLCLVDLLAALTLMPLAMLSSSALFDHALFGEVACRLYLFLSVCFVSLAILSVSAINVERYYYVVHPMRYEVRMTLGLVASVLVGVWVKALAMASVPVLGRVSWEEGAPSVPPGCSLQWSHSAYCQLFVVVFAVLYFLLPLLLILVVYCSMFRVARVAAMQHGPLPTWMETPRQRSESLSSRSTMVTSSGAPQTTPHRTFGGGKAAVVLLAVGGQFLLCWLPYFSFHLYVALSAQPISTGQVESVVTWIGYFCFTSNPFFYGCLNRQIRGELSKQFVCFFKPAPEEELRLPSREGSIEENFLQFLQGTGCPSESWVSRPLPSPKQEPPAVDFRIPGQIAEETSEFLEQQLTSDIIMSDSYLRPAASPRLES
Procedure, shortened: as §1

[33] = target: T33, ADRA1A (Homo sapiens, UniProt P35348)
T33 construct: purchased PRESTO-Tango GPCR kit (Roth lab / Addgene)
T33 sequence (P35348 whole entry): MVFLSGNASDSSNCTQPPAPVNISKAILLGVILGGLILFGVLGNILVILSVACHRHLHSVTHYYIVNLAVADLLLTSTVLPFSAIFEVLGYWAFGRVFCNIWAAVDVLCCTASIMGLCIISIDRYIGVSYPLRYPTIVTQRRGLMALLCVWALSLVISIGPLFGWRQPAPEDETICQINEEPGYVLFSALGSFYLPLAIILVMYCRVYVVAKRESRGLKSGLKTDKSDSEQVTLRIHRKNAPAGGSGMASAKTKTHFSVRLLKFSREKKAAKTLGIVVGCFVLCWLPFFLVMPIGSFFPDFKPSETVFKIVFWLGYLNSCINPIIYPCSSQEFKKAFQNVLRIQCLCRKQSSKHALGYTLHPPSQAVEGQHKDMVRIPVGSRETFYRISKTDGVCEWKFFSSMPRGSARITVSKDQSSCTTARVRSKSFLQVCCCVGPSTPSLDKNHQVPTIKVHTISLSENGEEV
Procedure, shortened: as §1

[34] = target: T34, GRM7 (Homo sapiens, UniProt Q14831)
T34 construct: purchased PRESTO-Tango GPCR kit (Roth lab / Addgene)
Procedure, shortened: as §1

[35] = target: T35, PTH1R (Homo sapiens, UniProt Q03431)
T35 construct: purchased PRESTO-Tango GPCR kit (Roth lab / Addgene)
T35 sequence (Q03431 27-593): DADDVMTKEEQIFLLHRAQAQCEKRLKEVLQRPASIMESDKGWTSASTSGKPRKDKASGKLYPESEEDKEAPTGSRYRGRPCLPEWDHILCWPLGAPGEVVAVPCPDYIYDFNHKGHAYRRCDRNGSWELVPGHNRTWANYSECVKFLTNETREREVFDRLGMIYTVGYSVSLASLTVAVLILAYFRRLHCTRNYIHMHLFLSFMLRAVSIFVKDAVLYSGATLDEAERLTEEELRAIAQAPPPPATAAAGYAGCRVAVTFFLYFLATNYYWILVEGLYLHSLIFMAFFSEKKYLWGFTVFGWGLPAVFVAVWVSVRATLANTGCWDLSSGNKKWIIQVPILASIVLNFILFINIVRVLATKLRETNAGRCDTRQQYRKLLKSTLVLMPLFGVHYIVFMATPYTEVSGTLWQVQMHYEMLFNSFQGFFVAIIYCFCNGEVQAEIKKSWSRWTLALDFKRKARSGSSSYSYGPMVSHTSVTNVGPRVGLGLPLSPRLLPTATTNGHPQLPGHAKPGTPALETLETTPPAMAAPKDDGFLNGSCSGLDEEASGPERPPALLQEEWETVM
Procedure, shortened: as §1

T1 sequence (Q969F8 whole entry): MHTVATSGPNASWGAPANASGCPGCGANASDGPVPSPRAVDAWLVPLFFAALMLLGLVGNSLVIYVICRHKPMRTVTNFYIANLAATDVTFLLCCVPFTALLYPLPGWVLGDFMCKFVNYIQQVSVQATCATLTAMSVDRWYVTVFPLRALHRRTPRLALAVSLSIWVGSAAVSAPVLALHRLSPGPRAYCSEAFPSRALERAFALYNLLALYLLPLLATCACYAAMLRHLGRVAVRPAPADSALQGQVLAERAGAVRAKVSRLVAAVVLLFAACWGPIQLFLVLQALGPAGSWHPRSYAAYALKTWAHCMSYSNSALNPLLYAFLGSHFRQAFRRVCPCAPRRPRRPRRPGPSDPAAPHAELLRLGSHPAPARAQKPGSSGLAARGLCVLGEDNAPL

| SMILES | GPCR activation (heatmap value) [1] | GPCR activation (heatmap value) [2] | GPCR activation (heatmap value) [3] | GPCR activation (heatmap value) [4] | GPCR activation (heatmap value) [5] | GPCR activation (heatmap value) [6] | GPCR activation (heatmap value) [7] | GPCR activation (heatmap value) [8] | GPCR activation (heatmap value) [9] | GPCR activation (heatmap value) [10] | GPCR activation (heatmap value) [11] | GPCR activation (heatmap value) [12] | GPCR activation (heatmap value) [13] | GPCR activation (heatmap value) [14] | GPCR activation (heatmap value) [15] | GPCR activation (heatmap value) [16] | GPCR activation (heatmap value) [17] | GPCR activation (heatmap value) [18] | GPCR activation (heatmap value) [19] | GPCR activation (heatmap value) [20] | also measured |
| --- | --- | --- | --- | --- | --- | --- | --- | --- | --- | --- | --- | --- | --- | --- | --- | --- | --- | --- | --- | --- | --- |
| CC(C)Cc1ncc(CCCCNC(=N)N)[nH]c1=O [3-Homo] | 1.206 | -0.3396 | -0.06522 | -0.519 | 0.8531 | 0.6939 | 0.2086 | 0.4723 | -0.554 | 0.3222 | -0.3794 | 0.01869 | -0.6902 | 0.2867 | -0.6668 | -0.5775 | 0.04802 | -0.04181 | -0.4803 | -0.06354 | GPCR activation (heatmap value) [21]: 0.03802; GPCR activation (heatmap value) [22]: 0.556; GPCR activation (heatmap value) [23]: 0.1434; GPCR activation (heatmap value) [24]: -0.9791; GPCR activation (heatmap value) [25]: -1.352; GPCR activation (heatmap value) [26]: -0.6579; GPCR activation (heatmap value) [27]: 0.2698; GPCR activation (heatmap value) [28]: 0.5382; GPCR activation (heatmap value) [29]: -0.3204; GPCR activation (heatmap value) [30]: -0.3215; GPCR activation (heatmap value) [31]: -0.8056; GPCR activation (heatmap value) [32]: 1.164; GPCR activation (heatmap value) [33]: -0.07966; GPCR activation (heatmap value) [34]: -0.0693; GPCR activation (heatmap value) [35]: -0.1159 |
| CC(C)Cc1ncc(CCCNC(=N)N)[nH]c1=O [compound 3] | 0.3199 | -1.289 | -1.0133 | 0.5927 | 0.9724 | 0.2945 | 0.347 | -0.6917 | -0.2835 | 0.3476 | -1.345 | 0.3766 | 0.1678 | 0.4444 | 0.1651 | 0.3051 | 0.5 | 0.4609 | 0.7283 | 0.3857 | GPCR activation (heatmap value) [21]: -0.7172; GPCR activation (heatmap value) [22]: -0.7817; GPCR activation (heatmap value) [23]: 0.8634; GPCR activation (heatmap value) [24]: 0.1054; GPCR activation (heatmap value) [25]: -0.2802; GPCR activation (heatmap value) [26]: 1.451; GPCR activation (heatmap value) [27]: -0.4298; GPCR activation (heatmap value) [28]: -0.5721; GPCR activation (heatmap value) [29]: -0.8181; GPCR activation (heatmap value) [30]: -0.6324; GPCR activation (heatmap value) [31]: -0.032; GPCR activation (heatmap value) [32]: 0.4932; GPCR activation (heatmap value) [33]: -0.2156; GPCR activation (heatmap value) [34]: 0.04754; GPCR activation (heatmap value) [35]: 0.5796 |
